The values that follow come from patent publication US20240307382A1, “MODULATORS OF THE INTEGRATED STRESS PATHWAY” (Calico Life Sciences LLC, priority 2017, published 2024).

By pEC50 is commonly meant the EC50 on a negative log10 scale, so that one unit is a factor of ten.

pEC50: −log10 of the molar value.

This experiment relates to HEK293T cells carrying the ATF4 luciferase reporter. As to the kind of experiment: ATF4-Luc assay (ATF4 luciferase reporter, tunicamycin-treated cells). It counts as cell-based. Particulars: Homo sapiens, HEK-293T, 1 μg/mL tunicamycin, 7 hours. As to the method: In order to test exemplary compounds of the invention in a cellular context, a stable VWMD cell line was first constructed. The ATF4 reporter was prepared by fusing the human full-length ATF4 5′-UTR (NCBI Accession No. BC022088.2) in front of the firefly luciferase (FLuc) coding sequence lacking the initiator methionine as described in Sidrauski et al (eLife 2013). The construct was used to produce recombinant retroviruses using standard methods and the resulting viral supermatant was used to transduce ITEK293T cells, which were then subsequently selected with puromycin to generate a stable cell line.
HTEK293T cells carrying the ATF4 luciferase reporter were plated on polylysine coated 384-well plates (Greiner Bio-one) at 30,000 cells per well. Cells were treated the next day with 1 μg/mL tunicamycin and 200 nM of a compound of Formula (I) for 7 hours. Luminescence was measured using One Glo (Promega) as specified by the manufacturer. Cells were maintained in DMEM with L-glutamine supplemented with 10% heat-inactivated FBS (Gibco) and Antibiotic-Antimycotic solution (Gibco).
Table 2 below summarizes the EC50 data obtained using the ATF4-Luc assay for exemplary compounds of the invention.
Background: A reporter such as luciferase makes a cellular process visible.
`O=C(COc1ccc(Cl)c(Cl)c1)NC12CCC(NC(=O)c3ccc(OC(F)(F)F)nc3)(CC1)C[C@@H]2O` [Compound 1001, N-{(3S)-4-[2-(3,4-dichlorophenoxy)acetamido]-3-hydroxybicyclo[2.2.2]octan-1-yl}-6-(trifluoromethoxy)pyridine-3-carboxamide]: the pEC50 is > 7.30.

Take `Cc1cc(C(=O)NC23CCC(NC(=O)COc4ccc(Cl)c(Cl)c4)(CC2)[C@@H](O)C3)sn1` [Compound 1002, N-{(3S)-4-[2-(3,4-dichlorophenoxy)acetamido]-3-hydroxybicyclo[2.2.2]octan-1-yl}-3-methyl-1,2-thiazole-5-carboxamide]: the pEC50 was > 7.30.

With `O=C(COc1ccc(Cl)c(Cl)c1)NC12CCC(NC(=O)c3cc(CO)ccn3)(CC1)C[C@@H]2O` [Compound 1003, N-{(3S)-4-[2-(3,4-dichlorophenoxy)acetamido]-3-hydroxybicyclo[2.2.2]octan-1-yl}-4-(hydroxymethyl)pyridine-2-carboxamide], the pEC50 was > 7.30.

On to `O=C(COc1ccc(Cl)c(F)c1)NC12CCC(NC(=O)c3coc(C(F)(F)F)n3)(CC1)C[C@@H]2O` [Compound 1004, N-{(3S)-4-[2-(4-chloro-3-fluorophenoxy)acetamido]-3-hydroxybicyclo[2.2.2]octan-1-yl}-2-(trifluoromethyl)-1,3-oxazole-4-carboxamide], for which the pEC50 is > 7.30.

On to `O=C(COc1ccc(Cl)c(Cl)c1)NC12CCC(NC(=O)c3cnc4cc(F)ccc4n3)(CC1)C[C@@H]2O` [Compound 1005, N-{(3S)-4-[2-(3,4-dichlorophenoxy)acetamido]-3-hydroxybicyclo[2.2.2]octan-1-yl}-6-fluoroquinoxaline-2-carboxamide], for which the pEC50 is > 7.30.

Take `O=C(COc1ccc(Cl)c(F)c1)NC12CCC(NC(=O)c3cnc4cc(F)ccc4n3)(CC1)C[C@@H]2O` [Compound 1006, N-{(3S)-4-[2-(4-chloro-3-fluorophenoxy)acetamido]-3-hydroxybicyclo[2.2.2]octan-1-yl}-6-fluoroquinoxaline-2-carboxamide]: the pEC50 was > 7.30.

On to `Cn1nc(C(=O)NC23CCC(NC(=O)COc4ccc(Cl)c(Cl)c4)(CC2)[C@@H](O)C3)cc1C(F)(F)F` [Compound 1007, N-{(3S)-4-[2-(3,4-dichlorophenoxy)acetamido]-3-hydroxybicyclo[2.2.2]octan-1-yl}-1-methyl-5-(trifluoromethyl)-1H-pyrazole-3-carboxamide], for which the pEC50 is > 7.30.

Take `O=C(COc1ccc(Cl)c(Cl)c1)NC12CCC(NC(=O)c3cnc4ccccc4n3)(CC1)C[C@@H]2O` [Compound 1008, N-{(3S)-4-[2-(3,4-dichlorophenoxy)acetamido]-3-hydroxybicyclo[2.2.2]octan-1-yl}quinoxaline-2-carboxamide]: the pEC50 was > 7.30.

In the case of `O=C(COc1ccc(Cl)c(Cl)c1)NC12CCC(NC(=O)c3coc(C(F)(F)F)n3)(CC1)C[C@@H]2O` [Compound 1009, N-{(3S)-4-[2-(3,4-dichlorophenoxy)acetamido]-3-hydroxybicyclo[2.2.2]octan-1-yl}-2-(trifluoromethyl)-1,3-oxazole-4-carboxamide], the negative logarithm of the EC50 (pEC50) is > 7.30.

Regarding `Cn1nc(C(F)F)cc1C(=O)NC12CCC(NC(=O)COc3ccc(Cl)c(Cl)c3)(CC1)[C@@H](O)C2` [Compound 1010, N-{(3S)-4-[2-(3,4-dichlorophenoxy)acetamido]-3-hydroxybicyclo[2.2.2]octan-1-yl}-3-(difluoromethyl)-1-methyl-1H-pyrazole-5-carboxamide], the pEC50 is > 7.30.

`O=C(COc1ccc(Cl)c(Cl)c1)NC12CCC(NC(=O)c3cnc(C(F)(F)F)cn3)(CC1)C[C@@H]2O` [Compound 1011, N-{(3S)-4-[2-(3,4-dichlorophenoxy)acetamido]-3-hydroxybicyclo[2.2.2]octan-1-yl}-5-(trifluoromethyl)pyrazine-2-carboxamide]: the pEC50 is 6.60 to 7.30.
